The values that follow come from patent US20260000710A1, “Novel Treatments for Cardiovascular Related Disease” (priority 2022, published 2026).

The subject of assay [1] is AIM+ and AIM− CD4+ T cells from peptide-expanded PBMCs. The experiment in a line: TCRβ CDR3 sequencing (immunoSEQ) of sorted AIM+ and AIM− CD4+ T cells.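 On all read-outs here: genomic DNA from sorted cells as template, amplification bias-controlled two-step multiplex PCR, APOB6 pool at 10 µg/ml per peptide, CD40 blocking antibody added before restimulation.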 Format: cell-based, human. The note with it: for Log10 Odds Ratio: AIM+ vs AIM−.
For assay [2], the system named is purified MHC molecules (28 common HLA DP, DQ and DR alleles). The experiment in a line: HLA class II competition binding assay (inhibition of radiolabeled ligand binding). The following applies: alleles bound at <1000 nM threshold. More on the design: species or system human. On the procedure:
Peptides predicted to bind most (≥75%) of the alleles, were experimentally verified in HLA-II binding assays^31. For each peptide, the number of alleles that bound at a <1000 nM threshold level was tabulated. Top 20 promiscuous binders (bind >50% of reference alleles) were selected for further study (FIG. 9A, Table 2).
Next, the capacity of these peptides to bind 28 common HLA alleles (27 from the reference set plus DPB1*03:01) was determined experimentally using classical competition assays based on the inhibition of binding of high affinity radiolabeled ligands to purified MHC molecules^3. Under the conditions utilized, where [radiolabeled peptide] is <[MHC], and [MHC]<[inhibitor peptide], the measured IC50 values, defined as the concentrations of inhibitor peptide that inhibits the binding of the radiolabeled ligand by 50%, are reasonable estimates of true Kd values.

The subject of another assay is PBMCs. Nature of the assay: IFNγ ELISpot after 14-day in vitro expansion and re-stimulation. Format: cell-based, human.
Assay [3] has as its target 28 common HLA alleles (27 from the reference set plus DPB1*03:01), purified MHC molecules. The experiment in a line: competition assay, inhibition of radiolabeled ligand binding to purified HLA class II; bound = IC50 <1000 nM.
The mark [4] stands for this setting: Donor 2, PBMCs expanded 14 days and restimulated 24 h with APOB6.
Where [5] appears, read: Donor 3, PBMCs expanded 14 days and restimulated 24 h with APOB6.
The mark [6] stands for this setting: Donor 5, PBMCs expanded 14 days and restimulated 24 h with APOB6.
Setting [7] is: Donor 1, PBMCs expanded 14 days and restimulated 24 h with APOB6.
The mark [8] stands for this setting: Donor 6, PBMCs expanded 14 days and restimulated 24 h with APOB6.
The mark [9] stands for this setting: Donor 4, PBMCs expanded 14 days and restimulated 24 h with APOB6.

Take “CSAMSPSGTGELFF: TCRβ CDR3 clone, TCRBV20-X+TCRBJ02-02, Donor 2”: in assay [1] (Donor 2), the “Log10 Odds Ratio” value came to 12.19. Also, in assay [1] (setting [4]), the “No. of clone-specific productive templates, AIM+ CD4+ T (Total 18591)” value stood at 549 and the “No. of clone-specific productive templates, AIM− CD4+ T (Total 7206)” value worked out at 0. Regarding “CSARADGQGYGYTF: TCRβ CDR3 clone, TCRBV20-X+TCRBJ01-02, Donor 3”, in assay [1] (Donor 3), the “Log10 Odds Ratio” value was found to be 1.73. Moreover, in assay [1] (setting [5]), the “No. of clone-specific productive templates, AIM+ CD4+ T (Total 16700)” value amounted to 996 and the “No. of clone-specific productive templates, AIM− CD4+ T (Total 21770)” value is on record as 26. With “CSAREGALDNSPLHF: TCRβ CDR3 clone, TCRBV20-X+TCRBJ01-06, Donor 5”, the “Log10 Odds Ratio” value in assay [1] (Donor 5) is listed as 2.33. Besides, in assay [1] (setting [6]), the “No. of clone-specific productive templates, AIM+ CD4+ T (Total 31354)” value was found to be 537 and the “No. of clone-specific productive templates, AIM− CD4+ T (Total 48987)” value is 4. With “CSAREPHDTSTDTQYF: TCRβ CDR3 clone, TCRBV20-X+TCRBJ02-03, Donor 2”, the “Log10 Odds Ratio” value in assay [1] (Donor 2) turned out to be 11.98. Besides, in assay [1] (setting [4]), the “No. of clone-specific productive templates, AIM+ CD4+ T (Total 18591)” value was 338 and the “No. of clone-specific productive templates, AIM− CD4+ T (Total 7206)” value stood at 0. On to “CSARVTGGGAHTGELFF: TCRβ CDR3 clone, TCRBV20-X+TCRBJ02-02, Donor 1”, for which the “Log10 Odds Ratio” value in assay [1] (Donor 1) stood at 2.69. In addition, in assay [1] (setting [7]), the “No. of clone-specific productive templates, AIM+ CD4+ T (Total 21697)” value is recorded as 422 and the “No. of clone-specific productive templates, AIM− CD4+ T (Total 49956)” value stood at 2.

On to “CSARWYNEQFF: TCRβ CDR3 clone, TCRBV20-01+TCRBJ02-01, Donor 3”, for which, in assay [1] (Donor 3), the “Log10 Odds Ratio” value is reported as 1.82. For the same molecule, in assay [1] (setting [5]), the “No. of clone-specific productive templates, AIM+ CD4+ T (Total 16700)” value is reported as 349 and the “No. of clone-specific productive templates, AIM− CD4+ T (Total 21770)” value is on record as 7. Take “CSASRTYDNQPQHF: TCRβ CDR3 clone, TCRBV20-01+TCRBJ01-05, Donor 2”: the “Log10 Odds Ratio” value in assay [1] (Donor 2) is reported as 11.96. Also, in assay [1] (setting [4]), the “No. of clone-specific productive templates, AIM+ CD4+ T (Total 18591)” value is 326 and the “No. of clone-specific productive templates, AIM− CD4+ T (Total 7206)” value turned out to be 0. On to “CSATGGTNEKLFF: TCRβ CDR3 clone, TCRBV20-X+TCRBJ01-04, Donor 6”, for which the “Log10 Odds Ratio” value in assay [1] (Donor 6) was found to be 1.59. In assay [1] (setting [8]), the “No. of clone-specific productive templates, AIM+ CD4+ T (Total 34927)” value is 500 and the “No. of clone-specific productive templates, AIM− CD4+ T (Total 45364)” value stood at 17. As to “CSVLQHEQYF: TCRβ CDR3 clone, TCRBV29-01+TCRBJ02-07, Donor 4”, in assay [1] (Donor 4), the “Log10 Odds Ratio” value turned out to be 0.49. For the same molecule, in assay [1] (setting [9]), the “No. of clone-specific productive templates, AIM+ CD4+ T (Total 25796)” value was determined as 466 and the “No. of clone-specific productive templates, AIM− CD4+ T (Total 25928)” value is reported as 153. With DKRLAAYLMLMRSPS [Peptide 1], the “No. of HLA-II alleles bound” value in assay [2] is recorded as 23. Take FLHYIFMENAFELPT [Peptide 3]: in assay [2], the “No. of HLA-II alleles bound” value was determined as 24.

Take GKIDFLNNYALFLSP [Peptide 14]: in assay [2], the “No. of HLA-II alleles bound” value turned out to be 23. As for HFSNVFRSVMAPFTM [Peptide 7], the “No. of HLA-II alleles bound” value in assay [2] came to 22. Still for that read-out and setting: to HVKHFVINLIGDFEV [Peptide 10] belongs 21. Consider IKHIYAISSAALSAS [Peptide 6], for which the “No. of HLA-II alleles bound” value in assay [2] came to 20. Still for that read-out and setting: to ILFSYFQDLVITLPF [Peptide 17] belongs 17; to KFTYLINYIQDEINT [Peptide 18], 19; to KIVSLIKNLLVALKD [Peptide 20], 20. On the same count and under the same terms, to LEVLNFDFQANAQLS [Peptide 12] belongs 18; to LIINWLQEALSSASL [Peptide 11], 17; to LSQLQTYMIQFDQYI [Peptide 9], 17.

As for QIHQYIMALREEYFD [Peptide 19], in assay [2], the “No. of HLA-II alleles bound” value is 25. Turning to QLYSKFLLKAEPLAF [Peptide 8], the “No. of HLA-II alleles bound” value in assay [2] worked out at 27.

Turning to RGLKLATALSLSNKF [Peptide 15], the “No. of HLA-II alleles bound” value in assay [2] was 23. Consider SLFFSAQPFEITAST [Peptide 13], for which the “No. of HLA-II alleles bound” value in assay [2] was 23. With TLTAFGFASADLIEI [Peptide 2], in assay [2], the “No. of HLA-II alleles bound” value is 21. The “response with pan-HLA-DR blocking antibody” value in the assay on PBMCs (donor 1, HLA-DR alleles with strong binding affinities for the peptide) is on record as “inhibited responses”. For the same molecule, the “immunogenicity under HLA-DR blockade” value in the assay on PBMCs (donor 2, DQ and DP binder alleles and DR non-binder alleles) is “remained unaffected”.

For VEFVTNMGIIIPDFA [Peptide 4], the “No. of HLA-II alleles bound” value in assay [2] is recorded as 18.

Turning to VGSKLIVAMSSWLQK [Peptide 5], in assay [2], the “No. of HLA-II alleles bound” value came to 21. Turning to YKKLRTSSFALNLPT [Peptide 16], the “No. of HLA-II alleles bound” value in assay [2] is 21.

B1: APOB peptide 20 (…) (peptide)
peptide: KIVSLIKNLLVALKD
As to B1, in assay [3], the No. of HLA-II alleles bound came to 20 alleles.

B2: APOB peptide 4 (…) (peptide)
peptide: VEFVTNMGIIIPDFA
On to B2, for which the No. of HLA-II alleles bound in assay [3] was 18 alleles.

B3: APOB peptide 5 (…) (peptide)
peptide: VGSKLIVAMSSWLQK
Take B3: the No. of HLA-II alleles bound in assay [3] amounted to 21 alleles.

B4: APOB peptide 13 (…) (peptide)
peptide: SLFFSAQPFEITAST
As for B4, the No. of HLA-II alleles bound in assay [3] was found to be 23 alleles.

B5: APOB peptide 14 (…) (peptide)
peptide: GKIDFLNNYALFLSP
For the molecule B5, the No. of HLA-II alleles bound in assay [3] was found to be 23 alleles.

B6: APOB peptide 17 (…) (peptide)
peptide: ILFSYFQDLVITLPF
In the case of B6, in assay [3], the No. of HLA-II alleles bound was determined as 17 alleles.

B7: APOB peptide 1 (…) (peptide)
peptide: DKRLAAYLMLMRSPS
In the case of B7, the No. of HLA-II alleles bound in assay [3] worked out at 23 alleles.

B8: APOB peptide 3 (…) (peptide)
peptide: FLHYIFMENAFELPT
For B8, the No. of HLA-II alleles bound in assay [3] is 24 alleles.

B9: APOB peptide 12 (…) (peptide)
peptide: LEVLNFDFQANAQLS
Regarding B9, the No. of HLA-II alleles bound in assay [3] was found to be 18 alleles.

B10: APOB peptide 6 (…) (peptide)
peptide: IKHIYAISSAALSAS
For the molecule B10, the No. of HLA-II alleles bound in assay [3] amounted to 20 alleles.

B11: APOB peptide 8 (…) (peptide)
peptide: QLYSKFLLKAEPLAF
B11: the No. of HLA-II alleles bound in assay [3] worked out at 27 alleles.

B12: APOB peptide 7 (…) (peptide)
peptide: HFSNVFRSVMAPFTM
As to B12, in assay [3], the No. of HLA-II alleles bound is 22 alleles.

B13: APOB peptide 16 (…) (peptide)
peptide: YKKLRTSSFALNLPT
On to B13, for which the No. of HLA-II alleles bound in assay [3] came out at 21 alleles.

B14: APOB peptide 9 (…) (peptide)
peptide: LSQLQTYMIQFDQYI
For B14, the No. of HLA-II alleles bound in assay [3] came out at 17 alleles.

B15: APOB peptide 19 (…) (peptide)
peptide: QIHQYIMALREEYFD
For B15, the No. of HLA-II alleles bound in assay [3] was 25 alleles.

B16: APOB peptide 11 (…) (peptide)
peptide: LIINWLQEALSSASL
For B16, the No. of HLA-II alleles bound in assay [3] was 17 alleles.

B17: APOB peptide 18 (…) (peptide)
peptide: KFTYLINYIQDEINT
In the case of B17, the No. of HLA-II alleles bound in assay [3] stood at 19 alleles.

B18: APOB peptide 10 (…) (peptide)
peptide: HVKHFVINLIGDFEV
B18: the No. of HLA-II alleles bound in assay [3] was 21 alleles.

B19: APOB peptide 2 (…) (peptide)
peptide: TLTAFGFASADLIEI
On to B19, for which the No. of HLA-II alleles bound in assay [3] amounted to 21 alleles.
